Source: PubChem BioAssay (NCI)
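Test compounds were applied to cells in 96-well plates for 48 hours at 5 doses. Abbreviation: GI50, concentration required for 50% inhibition of growth. TGI marks complete inhibition of growth.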

Tests used:
Experiment in all cases: NCI anticancer screen, dose series, 48 h
[1] = tested on: IGROV1 ovarian
[2] = tested on: T-47D breast
[3] = tested on: CCRF-CEM leukemia
[4] = tested on: CAKI-1 renal
[5] = tested on: BT-549 breast

NCCNc1nc2ccc(F)cc2c2c(=O)c3cc(F)ccc3sc12
GI50 [1]: 1040 nM
TGI [1]: 2.37 µM
GI50 [2]: 1720 nM
TGI [2]: 3.72 µM
GI50 [3]: 2110 nM
TGI [3]: 4.54 µM
GI50 [4]: 1080 nM
TGI [4]: 2.78 µM
GI50 [5]: 9.72 µM
TGI [5]: 24.1 µM

COC(=O)C(Br)(C(=O)OC)C(Br)C(Br)C(Br)c1ccccc1 (centres undefined)
GI50 [1]: 1060 nM
TGI [1]: 3.45 µM
GI50 [2]: 2470 nM
TGI [2]: 8.06 µM
GI50 [3]: 2000 nM
TGI [3]: 7.21 µM
GI50 [4]: 1760 nM
TGI [4]: 3.73 µM
GI50 [5]: 12.4 µM
TGI [5]: 25.3 µM

CSc1ccc(NC(=O)CCl)cc1
TGI [1]: > 10 µM
TGI [2]: > 10 µM
TGI [3]: > 10 µM
TGI [4]: > 10 µM

CCN1C(=O)N[C@H]2[C@@H]3NC(=O)c4ccc(Cl)n4[C@@H]3C[C@]21O
GI50 [1]: 471 nM
TGI [1]: 6.46 µM
GI50 [2]: 222 nM
TGI [2]: 0.933 µM
GI50 [3]: 224 nM
TGI [3]: 1.25 µM
GI50 [4]: 2870 nM
TGI [4]: > 100 µM
GI50 [5]: 0.41 µM
TGI [5]: 4.29 µM

COc1ccc(-n2nc(C(=O)NCC(=O)Nc3nc4cc(OC)ccc4s3)c3ccccc3c2=O)cc1
GI50 [1]: 1180 nM
TGI [1]: > 25.3 µM
GI50 [2]: 927 nM
TGI [2]: 5.81 µM
GI50 [3]: > 100000 nM
TGI [3]: > 100 µM
GI50 [4]: 366 nM
TGI [4]: 2.99 µM
GI50 [5]: 3.04 µM
TGI [5]: 25.9 µM

O=C1Nc2cc(-c3ccc(O)cc3)ccc2/C1=C/c1ccc[nH]1
GI50 [1]: 327 nM
TGI [1]: 7.22 µM
GI50 [2]: 59.1 nM
GI50 [3]: 154 nM
TGI [3]: > 100 µM
GI50 [4]: 43.5 nM
TGI [4]: 3.59 µM
GI50 [5]: 0.396 µM
TGI [5]: 13.3 µM

NC1=C(/C(N)=N/O)C(c2ccccc2)c2ccc3ccccc3c2O1 (centres undefined)
GI50 [1]: 459 nM
TGI [1]: > 64.3 µM
GI50 [3]: 388 nM
TGI [3]: > 62.8 µM
GI50 [4]: 192 nM
TGI [4]: 42.3 µM
GI50 [5]: 1.11 µM
TGI [5]: 69.6 µM

COc1cc(NC(=O)c2cc3ccccc3cc2O)c(OC)cc1Cl
GI50 [1]: 77.6 nM
TGI [1]: 15.4 µM
GI50 [2]: 1800 nM
TGI [2]: 6.15 µM
GI50 [3]: 2610 nM
TGI [3]: > 20.5 µM
TGI [4]: 3.76 µM
GI50 [5]: 1.65 µM
TGI [5]: 5.05 µM

COc1ncc(-c2ccc3ncnc(Nc4cccc(Cl)c4)c3c2)cc1NS(C)(=O)=O
GI50 [1]: 189 nM
TGI [1]: 0.815 µM
GI50 [2]: 169 nM
TGI [2]: 1.33 µM
GI50 [3]: 2810 nM
TGI [3]: 43.2 µM
GI50 [4]: 457 nM
TGI [4]: 10.8 µM
GI50 [5]: 1.92 µM
TGI [5]: 9.32 µM

COc1ccc2c(ccc3oc([N+](=O)[O-])cc32)c1
GI50 [1]: 199 nM
TGI [1]: 3.47 µM
GI50 [2]: 448 nM
TGI [2]: 8.05 µM
GI50 [3]: 90 nM
TGI [3]: > 40.7 µM
GI50 [4]: 128 nM
TGI [4]: 0.755 µM
GI50 [5]: 0.187 µM
TGI [5]: 0.521 µM

COc1cc(-c2cn(-c3ccc(F)cc3)c(=O)[nH]2)cc(OC)c1OC
GI50 [1]: > 100000 nM
TGI [1]: > 100 µM
GI50 [2]: > 100000 nM
TGI [2]: > 100 µM
GI50 [3]: > 100000 nM
TGI [3]: > 100 µM
GI50 [4]: > 100000 nM
TGI [4]: > 100 µM
GI50 [5]: > 100 µM
TGI [5]: > 100 µM

Nc1ncc(-c2ccc3ncnc(N4CCc5cc(F)c(Cl)cc54)c3c2)cc1C(F)(F)F
GI50 [2]: 1070 nM
TGI [2]: > 100 µM
GI50 [3]: 2680 nM
TGI [3]: > 100 µM
GI50 [5]: 1.07 µM
TGI [5]: 8.33 µM

CCOC(=O)CC1C(CNC(=O)NC)OC(n2cnc3c(NC(=O)Nc4ccccc4)ncnc32)C1O[Si](C)(C)C(C)(C)C (centres undefined)
GI50 [1]: 3850 nM
TGI [1]: 18 µM
GI50 [2]: 2550 nM
TGI [2]: > 100 µM
GI50 [3]: 6690 nM
TGI [3]: 88.6 µM
GI50 [4]: 29700 nM
TGI [4]: > 100 µM
GI50 [5]: > 100 µM
TGI [5]: > 100 µM

N#Cc1cc2c(=S)[nH]c(=S)[nH]c2nc1SCc1ccccc1
GI50 [1]: 55800 nM
TGI [1]: > 100 µM
GI50 [3]: 33100 nM
TGI [3]: > 100 µM
GI50 [4]: 10100 nM
TGI [4]: 76.8 µM
GI50 [5]: 47.2 µM
TGI [5]: > 100 µM

CCOc1cc(CCNC)c2c(ccc3ccc(OC)c(O)c32)c1OC
TGI [1]: 27.7 µM
TGI [2]: 51.1 µM
TGI [3]: > 100 µM
TGI [4]: 34 µM
TGI [5]: 30.1 µM

COC(=O)C[C@@H]1CC=CC(=O)/C1=C(O)/C=C/c1ccccc1
GI50 [1]: 216 nM
TGI [1]: 0.52 µM
GI50 [2]: 549 nM
TGI [2]: 2.66 µM
GI50 [3]: 264 nM
TGI [3]: 1.19 µM
GI50 [4]: 408 nM
TGI [4]: 1.41 µM
GI50 [5]: 1.48 µM
TGI [5]: 2.86 µM

Nc1n[nH]c2cc(F)c([C@@H]3Nc4c(F)cc5[nH]ncc5c4[C@H]4C5CCC(C5)[C@@H]34)cc12 (some centres undefined)
GI50 [1]: 130 nM
TGI [1]: 5.04 µM
GI50 [2]: 5890 nM
TGI [2]: 26.6 µM
GI50 [3]: 127 nM
TGI [3]: 28.7 µM
GI50 [4]: 137 nM
TGI [4]: 3.38 µM
GI50 [5]: 0.103 µM
TGI [5]: 1.37 µM

COc1ccc2cn3c4ccc(O)cc4[nH]c(=O)c3c2c1
GI50 [1]: 277 nM
TGI [1]: 17.3 µM
GI50 [2]: 573 nM
TGI [2]: 24.1 µM
GI50 [3]: 84.5 nM
TGI [3]: 12.2 µM
GI50 [4]: 179 nM
TGI [4]: 17 µM
GI50 [5]: 3.34 µM
TGI [5]: 18.1 µM

COc1ccc(OC)c(-c2nc3sc(C)cn3c2/C=C2\C(=O)N(C)c3ccccc32)c1
GI50 [1]: 22000 nM
TGI [1]: 66.5 µM
GI50 [2]: 30800 nM
TGI [2]: 73.7 µM
GI50 [3]: 5800 nM
TGI [3]: 83 µM
GI50 [4]: 23800 nM
TGI [4]: 65.4 µM
GI50 [5]: 26.2 µM
TGI [5]: 81.6 µM

COc1ccc(-c2cncn2-c2ccc(-c3nc4cc(OC)c(OC)c(OC)c4s3)cc2)cc1N
GI50 [1]: 4900 nM
TGI [1]: > 100 µM
GI50 [2]: 3020 nM
TGI [2]: > 100 µM
GI50 [3]: 3410 nM
TGI [3]: > 100 µM
GI50 [4]: 4820 nM
TGI [4]: > 100 µM
GI50 [5]: 6.21 µM
TGI [5]: > 100 µM

COc1ccccc1CNC(=O)/C=C/c1ccc(O)c(O)c1
GI50 [1]: 22900 nM
TGI [1]: > 100 µM
GI50 [2]: 43400 nM
TGI [2]: > 100 µM
GI50 [3]: 18200 nM
TGI [3]: > 100 µM
GI50 [4]: 30300 nM
TGI [4]: > 100 µM
GI50 [5]: 40.2 µM
TGI [5]: > 100 µM

C=C(C)[C@@H]1CC[C@]2(COC(=O)c3ccccc3C(=O)O)CC[C@]3(C)[C@H](CC[C@@H]4[C@@]5(C)CC[C@H](OC(=O)c6ccccc6C(=O)O)C(C)(C)[C@@H]5CC[C@]43C)[C@@H]12
GI50 [1]: 33200 nM
TGI [1]: > 100 µM
GI50 [2]: 19700 nM
TGI [2]: 75.8 µM
GI50 [3]: 30500 nM
TGI [3]: > 100 µM
GI50 [4]: 18600 nM
TGI [4]: 85.2 µM
GI50 [5]: 33.3 µM
TGI [5]: > 100 µM
